Assay results published in patent US20170050957A1, “4-AMINO-6-(HETEROCYCLIC)PICOLINATES AND 6-AMINO-2-(HETEROCYCLIC)PYRIMIDINE-4-CARBOXYLATES AND THEIR USE AS HERBICIDES” (Dow AgroSciences LLC, priority 2013, published 2017).
Read-outs that look alike come from different tables or passages of the source.

Key:
[1] = test system: Key Broadleaf Weed and Crop Species; experiment: Post-emergent Test II herbicidal activity (Table 15); format: in vivo; conditions: post-emergence, 336 h, 14 d; for pest or weed control at 35 g/ha: 35 g ai/ha; for pest or weed control at 70 g/ha: 70 g ai/ha; for pest or weed control at 140 g/ha: 140 g ai/ha
Outline: (§1)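 Visual injury rating (0 = none, 100% = complete kill) made 14 d after treatment, relative to untreated plants. Compounds in an acetone/DMSO/aqueous crop-oil/surfactant spray, at top rate and serial 1/2×-1/16× rates, were applied at 187 L/ha overhead to first-second true leaf plants raised 7-21 d in greenhouse.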

[2] = test system: Key Grass and Sedge Weeds as well as Grass Crops; experiment: Post-emergent Test II herbicidal activity (Table 16); format: in vivo; conditions: post-emergence, 336 h, 14 d; for pest or weed control at 35 g/ha: 35 g ai/ha; for pest or weed control at 70 g/ha: 70 g ai/ha; for pest or weed control at 140 g/ha: 140 g ai/ha
Outline: as §1

[3] = Abutilon theophrasti, velvetleaf (Abutilon theophrasti), read-out: Visual Growth Reduction (%) 14 Days After Application, ABUTH
[4] = Amaranthus retroflexus, redroot pigweed (Amaranthus retroflexus), read-out: Visual Growth Reduction (%) 14 Days After Application, AMARE
[5] = Brassica napus, oilseed rape, canola (Brassica napus), read-out: Visual Growth Reduction (%) 14 Days After Application, BRSNN
[6] = Chenopodium album, lambsquarters (Chenopodium album), read-out: Visual Growth Reduction (%) 14 Days After Application, CHEAL
[7] = Euphorbia heterophylla, wild poinsettia (Euphorbia heterophylla), read-out: Visual Growth Reduction (%) 14 Days After Application, EPHHL
[8] = Helianthus annuus, sunflower (Helianthus annuus), read-out: Visual Growth Reduction (%) 14 Days After Application, HELAN
[9] = Cyperus esculentus, yellow nutsedge (Cyperus esculentus), read-out: Visual Growth Reduction (%) 14 Days After Application, CYPES
[10] = Echinochloa crus-galli, barnyardgrass (Echinochloa crus-galli), read-out: Visual Growth Reduction (%) 14 Days After Application, ECHCG
[11] = Oryza sativa, rice (Oryza sativa), read-out: Visual Growth Reduction (%) 14 Days After Application, ORYSA
[12] = Setaria faberi, giant foxtail (Setaria faberi), read-out: Visual Growth Reduction (%) 14 Days After Application, SETFA
[13] = Triticum aestivum, wheat, spring (Triticum aestivum), read-out: Visual Growth Reduction (%) 14 Days After Application, TRZAS
[14] = Zea mays, maize, corn (Zea mays), read-out: Visual Growth Reduction (%) 14 Days After Application, ZEAMX

`COC(=O)c1nc(-c2cccc3[nH]ccc23)c(F)c(N)c1Cl` [Compound 1.40] gave a melting point of 233 to 236 °C, a pest or weed control at 35 g/ha [1, 3] of 0 to 29% and a pest or weed control at 70 g/ha [1, 3] of 0 to 29%. For the same compound, the pest or weed control at 140 g/ha [1, 3] was 0 to 29%, the pest or weed control at 70 g/ha [1, 4] was 95 to 100% and the pest or weed control at 35 g/ha [1, 5] was 0 to 29%. The pest or weed control at 70 g/ha [1, 5] was 0 to 29%, the pest or weed control at 140 g/ha [1, 5] was 0 to 29% and the pest or weed control at 35 g/ha [1, 6] was 0 to 29%. It also gave a pest or weed control at 70 g/ha [1, 6] of 0 to 29%, a pest or weed control at 140 g/ha [1, 6] of 0 to 29% and a pest or weed control at 35 g/ha [1, 7] of 0 to 29%. For the same compound, the pest or weed control at 70 g/ha [1, 7] was 0 to 29%, the pest or weed control at 140 g/ha [1, 7] was 0 to 29% and the pest or weed control at 35 g/ha [1, 8] was 0 to 29%. The pest or weed control at 70 g/ha [1, 8] was 30 to 44%, the pest or weed control at 140 g/ha [1, 8] was 45 to 59% and the pest or weed control at 35 g/ha [2, 9] was 0 to 29%. For the same compound, the pest or weed control at 70 g/ha [2, 9] was 0 to 29%, the pest or weed control at 140 g/ha [2, 9] was 0 to 29% and the pest or weed control at 35 g/ha [2, 10] was 0 to 29%. It also gave a pest or weed control at 70 g/ha [2, 10] of 0 to 29%, a pest or weed control at 140 g/ha [2, 10] of 0 to 29% and a pest or weed control at 35 g/ha [2, 11] of 0 to 29%. It also gave a pest or weed control at 70 g/ha [2, 11] of 0 to 29%, a pest or weed control at 140 g/ha [2, 11] of 0 to 29% and a pest or weed control at 35 g/ha [2, 12] of 0 to 29%. The pest or weed control at 70 g/ha [2, 12] was 0 to 29%, the pest or weed control at 140 g/ha [2, 12] was 0 to 29% and the pest or weed control at 35 g/ha [2, 13] was 0 to 29%. The pest or weed control at 70 g/ha [2, 13] was 0 to 29%, the pest or weed control at 140 g/ha [2, 13] was 0 to 29% and the pest or weed control at 35 g/ha [2, 14] was 0 to 29%. It also gave a pest or weed control at 70 g/ha [2, 14] of 0 to 29% and a pest or weed control at 140 g/ha [2, 14] of 0 to 29%.
With `COC(=O)c1nc(-c2ccc(Cl)c3occc23)cc(N)c1Cl` [Compound 2.19] the melting point was 158 to 159 °C, the pest or weed control at 35 g/ha [1, 3] was 95 to 100% and the pest or weed control at 70 g/ha [1, 3] was 95 to 100%. For the same compound, the pest or weed control at 140 g/ha [1, 3] was 95 to 100%, the pest or weed control at 35 g/ha [1, 4] was 95 to 100% and the pest or weed control at 70 g/ha [1, 4] was 95 to 100%. The pest or weed control at 140 g/ha [1, 4] was 95 to 100%, the pest or weed control at 35 g/ha [1, 5] was 0 to 29% and the pest or weed control at 70 g/ha [1, 5] was 60 to 74%. It also gave a pest or weed control at 140 g/ha [1, 5] of 60 to 74%, a pest or weed control at 35 g/ha [1, 6] of 95 to 100% and a pest or weed control at 70 g/ha [1, 6] of 95 to 100%. It also gave a pest or weed control at 140 g/ha [1, 6] of 95 to 100%, a pest or weed control at 35 g/ha [1, 7] of 0 to 29% and a pest or weed control at 70 g/ha [1, 7] of 0 to 29%. The pest or weed control at 140 g/ha [1, 7] was 0 to 29%, the pest or weed control at 35 g/ha [1, 8] was 0 to 29% and the pest or weed control at 70 g/ha [1, 8] was 75 to 84%. It also gave a pest or weed control at 140 g/ha [1, 8] of 75 to 84%, a pest or weed control at 35 g/ha [2, 9] of 0 to 29% and a pest or weed control at 70 g/ha [2, 9] of 0 to 29%. It also gave a pest or weed control at 140 g/ha [2, 9] of 0 to 29%, a pest or weed control at 35 g/ha [2, 10] of 0 to 29% and a pest or weed control at 70 g/ha [2, 10] of 0 to 29%. For the same compound, the pest or weed control at 140 g/ha [2, 10] was 0 to 29%, the pest or weed control at 35 g/ha [2, 11] was 0 to 29% and the pest or weed control at 70 g/ha [2, 11] was 0 to 29%. It also gave a pest or weed control at 140 g/ha [2, 11] of 0 to 29%, a pest or weed control at 35 g/ha [2, 13] of 0 to 29% and a pest or weed control at 70 g/ha [2, 13] of 0 to 29%. It also gave a pest or weed control at 140 g/ha [2, 13] of 0 to 29%, a pest or weed control at 35 g/ha [2, 14] of 0 to 29% and a pest or weed control at 70 g/ha [2, 14] of 0 to 29%. For the same compound, the pest or weed control at 140 g/ha [2, 14] was 0 to 29%.
